We go through 8 compounds from paper PMC6958375 (Pharmaceuticals, 2019).

“Also recorded” adds a separate entry of the source. Where two headings read alike, the source gives them in different places.

The subject of data set [1] is SUM 149 cells. In words: Pro-oxidant effect by cell counting with NAC, SUM 149. The note with it: for Cell Viability (%): SUM 149, cell counting, mean ± SE. The protocol: (§1) Pro-oxidant effects were examined by cell counting, adding N-acetyl-L-cysteine (NAC), an antioxidant molecule, 1h before compounds. Results were expressed as mean ± standard error (SE) of at least three different experiments performed in duplicate. All the chemicals were supplied by Sigma Aldrich Srl, Milan, Italy.

For another data set, the system named is 1-7HB2 cells. Nature of the data set: Cell growth assay (MTS), normal cell line 1-7HB2. The data set is classed as cell-based. The note with it: cell growth inhibition, 72 h of treatment, mean ± SE. Here is the method: (§2) Dr. Elda Tagliabue (Molecular Targeting Unit, Department of Experimental Oncology and Molecular Medicine, Fondazione Institute of Hospitalization and Scientific Care, National Cancer Institute, Milan, Italy) kindly provided us the human breast cancer cell lines: MDA-MB-231(ATCC: HTB-26—Rockville, MD, USA) and SUM 149 (SUM149PT—Asterand Bioscience Detroit, MI). The first was cultured in RPMI-1640 and the second was cultured in DMEM/F-12 supplemented with insulin (5 μg/mL). The cells were authenticated using the short tandem repeat profiling method in their Institute. Prof. Giulio Ghersi (STEBICEF Department, University of Palermo, Italy) kindly provided us the non-tumorigenic cell line 1-7HB2 (ECACC 10081201—Cancer Research Technology, London, UK) that was cultured in DMEM low glucose supplemented with hydrocortisone (5 μg/mL) and insulin (10 μg/mL). HL60, obtained from ATCC® (CCL-240, Rockville, MD, USA), and its variant HL60R, obtained by exposure to gradually increasing concentrations of doxorubicin, were cultured in RPMI-1640. All media were supplemented with 10% heat-inactivated fetal calf serum, 2 mM L-glutamine, 100 U/mL penicillin and 100 μg/mL streptomycin (all reagents were from EuroClone S.p.A., Milan, Italy; GE Healthcare Life Sciences, Logan, UT, USA). All cell lines were cultured in a humidified atmosphere at 37 °C in 5% CO2.
(§3) The cells were seeded at 2 × 10^4 cells/well onto 96-well plates and incubated at 37 °C overnight; at time 0, the medium was replaced with fresh complete medium supplemented of compounds at the indicated concentrations. Following 72 h of treatment, 16 μL of a commercial solution obtained from Promega Corporation (Madison, WI, USA) containing 3-(4,5-dimethylthiazol- 2-yl)-5-(3-carboxy methoxyphenyl)-2-(4-sulphophenyl)-2H-tetrazolium (MTS) and phenazine ethosulfate were added. After a incubation in a humidified atmosphere at 37 °C in 5% CO2, the bioreduction of MTS dye was evaluated by measuring the absorbance of each well at 490 nm, using a microplate absorbance reader (iMark Microplate Reader; Bio-Rad Laboratories, Inc., Hercules, CA, USA). Cell growth inhibition was expressed as a percentage (mean ± SE) of the absorbance of the control cells.

Data set [2] deals with NF-κB (p65 subunit). In words: NF-κB DNA-binding activity (TransAM), SUM 149 nuclear extracts. Format: cell-based, human. The note with it: SUM 149, compounds at IC50 values, 24 h of treatment. From the text:
(§4) The DNA-binding capacity of NF-κB (p65 subunit) was defined in the nuclear extracts of SUM 149 and MDA-MB-231 cells using the TransAM NF-κB and Nuclear Extract kits (Active Motif, Carlsbad, CA, USA). The determination of binding capacity was based on a 96-well plate, on which an oligonucleotide containing the NF-κB consensus binding site was fixed. […] After addition of a horseradish peroxidase-conjugated secondary antibody, a sensitive colorimetric readout was quantified by densitometry (iMark Microplate Reader; Bio-Rad Laboratories, Inc.). The control of specificity of the assay carried out according to the indications of manufacturer’s protocol. The results were expressed as arbitrary units: one unit indicated the DNA binding capacity exerted by 2.5 μg whole cell extract from Jurkat cells/microgram of protein from the nuclear extracts. Jurkat cells, stimulated with 12-O-tetradecanoylphorbol-13-acetate and calcium ionophore, are the positive control for NF-κB p65 activation.

The subject of the next data set is Survivin. Nature of the data set: Western blot of Survivin in SUM 149 cells. The note with it: SUM 149, 24 h, compound at IC50. The data set is classed as cell-based, human. An excerpt:
(§5) In order to verify if the three analogues alter the expression of some targets of NF-κB, like curcumin, western blot analysis was used. […] In line with the results of NF-κB DNA-binding activity inhibition, only Compounds 1 and 3 caused a decrease of expression of some targets in the same cell lines. In particular, in SUM 149 cells only Compound 3 caused a decreased expression of Survivin (a 55% of reduction respect to control) and Bcl-2 (a 48% of reduction respect to control), while in MDA-MB-231 cells only Compound 1 caused a reduction of IAP1 expression (a 32% of reduction with respect to the control) (Figure 8 and Figure 9).
(§6) Whole-cell lysates were obtained from breast cancer cells using RIPA buffer (Santa Cruz Biotechnology Inc., Dallas, TX, USA) and 25 μg protein was subjected to 10% SDS-PAGE and transferred to Hybond-P membranes (GE Healthcare Europe GmbH, Freiburg, Germany). Filters were incubated with primary antibodies raised against β-actin (Sigma-Aldrich Srl, Milan, Italy), Bcl-2 (Santa Cruz Biotechnology Inc., Dallas, TX, USA), XIAP (Cell Signaling Technology, Danvers, MA), Survivin (Novus Biologicals, Littleton, CO), IAP1 (Cell Signaling Technology, Danvers, MA). […]
(§7) Immunoblots were quantified by densitometry, the data were expressed as arbitrary units (protein/β-actin).
Background: A western blot detects proteins with antibodies after separation by electrophoresis.

For a further data set, the system named is Bcl-2. In words: Western blot of Bcl-2 in SUM 149 cells. Format: cell-based, human. The note with it: SUM 149, 24 h, compound at IC50.
Description: as §5, §6, §7

Another data set concerns HL60R cells. In words: Cell growth assay, multidrug resistant HL60R. Format: cell-based. The note with it: read-out: HL60 R IC50. Here is the method:
as §2, §3

The subject of the next data set is HL60 cells. In words: Cell growth assay, HL60. Format: cell-based. The protocol: as §2, §3
Data set [3] relates to MDA-MB-231 cells. In words: Pro-oxidant effect by cell counting with NAC, MDA-MB-231. Here is the method: as §1
Data set [4] deals with SUM 149 cells. Nature of the data set: Cell growth assay (MTS), SUM 149. The data set is classed as cell-based, human. The note with it: 72 h of treatment, mean ± SE. The protocol:
as §2, §3

The test system of data set [5] is NF-κB (p65 subunit). In words: NF-κB DNA-binding activity (TransAM), MDA-MB-231 nuclear extracts. Format: cell-based, human. The note with it: MDA-MB-231, compounds at IC50 values, 8 h of treatment.
Description: as §4

The nature of data set [6]: DPPH free radical scavenging assay. Format: biochemical. The note with it: DPPH reduction, 1 h in the dark at room temperature, absorbance 517 nm. Here is the method:
The antioxidant activity was evaluated by the DPPH stable radical method. Trolox (6-hydroxy-2,5,7,8-tetramethyl-chroman-2-carboxylic acid) curve was used as the positive control. 100 μL of sample was added to aliquots of a solution made up with DPPH (4.8 mg) in MeOH (200 mL), and the mixture was incubated in the dark, for 1 h at room temperature. The absorbance was measured using a UV-VIS spectrophotometer, at 517 nm. The results were plotted as the percentage of absorbance disappearance at 517 nm [(1-A/A0) × 100] against the amount of sample divided by the initial concentration of DPPH; lower absorbance values of reaction mixture indicate higher free radical scavenging activity. ED50 corresponds to micrograms of fraction able to consume half the amount of free radical divided by micromoles of initial DPPH. The results were expressed as antiradical capacity (ARC), which is the inverse of ED50. Each point was acquired in triplicate.
(In general: Loss of DPPH colour is used to gauge radical scavenging.)

The subject of data set [7] is MDA-MB-231 cells. In words: Cell growth assay (MTS), MDA-MB-231. The data set is classed as cell-based, human. The note with it: 72 h of treatment, mean ± SE. Here is the method:
as §2, §3

A further data set concerns IAP1. Nature of the data set: Western blot of IAP1 in MDA-MB-231 cells. Format: cell-based, human. The note with it: MDA-MB-231, 8 h, compound at IC50.
Description: as §5, §6, §7

Setting [8] is: multidrug resistant variant of HL60, cell growth assay.
Where [9] appears, read: acute promyelocytic leukemia HL60, cell growth assay, read-out: HL60 IC50.
[10] abbreviates: cell growth inhibition, read-out: SUM149 IC50 (converted).

Usually IC50 stands for the midpoint of a concentration-inhibition curve. Take “4-phenylsulfanyl-(1E,6E)-1,7-bis(4-hydroxy-3-methoxyphenyl)hepta-1,6-diene-3,5-dione [Compound 3]”: the “Cell Viability (%)” value in the data set on SUM 149 cells [1] (NAC 2 mM 1 h before compound at its IC50) was 14.0 ± 4.6%; with SUM 149 cells [1] (compound alone at its IC50 (curc 14 μM, 1 11 μM, 2 13 μM, 3 14 μM)), 34.0 ± 2.1%; with MDA-MB-231 cells [3] (MDA-MB-231, cell counting, compound alone at its IC50 (curc 25 μM, 1 18 μM, 2 20 μM, 3 15 μM), mean ± SE), 25.6 ± 0.7%. The IC50 in the data set with 1-7HB2 cells is 12.5 ± 0.43 µM; with HL60R cells (setting [8]), 6.7 µM; in the data set on HL60 cells (setting [9]), under 1 µM; with SUM 149 cells [4] (setting [10]) it was 13.5 ± 0.88 µM; in the data set with MDA-MB-231 cells [7] (cell growth inhibition), 15 ± 0.85 µM. Also, the “NF-κB DNA-binding activity” value is given as “stronger decrease than curcumin” with NF-κB (p65 subunit) [2] and “NF-κB inhibitors” in the data set with NF-κB (p65 subunit) [5]. The “reduction of Survivin expression respect to control” value with Survivin amounted to 55%. Moreover, in the data set with Bcl-2, the “reduction of Bcl-2 expression respect to control” value turned out to be 48%. The same compound came in with an ED50 in data set [6] of 19.2 µM.

On to `C#CCOc1ccc(/C=C/C(=O)CC(=O)/C=C/c2ccc(OCC#C)c(OC)c2)cc1OC` [Compound 2, (1E,6E)-1,7-bis(3-methoxy-4-propargyloxyphenyl)hepta-1,6-diene-3,5-dione], for which the “1-7HB2 IC50” value with 1-7HB2 cells is recorded as “not reached”. Also, the IC50 in the data set with HL60R cells (setting [8]) was 9 µM; with HL60 cells (setting [9]), 17 µM; with SUM 149 cells [4] (setting [10]) it was 13.2 ± 1.59 µM; in the data set on MDA-MB-231 cells [7] (cell growth inhibition), 20 µM.

For `COc1cc(/C=C/C(O)=C/C(=O)/C=C/c2ccc(OCc3ccc(CBr)cc3)c(OC)c2)ccc1O` [Compound 4, (1E,6E)-1-(4-hydroxy-3-methoxyphenyl)-7-[3-methoxy-4(4-methylbromobenzyl)oxyphenyl] hepta-1,6-diene-3,5-dione], the “1-7HB2 IC50” value with 1-7HB2 cells was “not reached”. Also, in the data set with SUM 149 cells [4] (cell growth inhibition), the “SUM149 IC50” value is given as “not reached”. Moreover, in the data set with MDA-MB-231 cells [7] (cell growth inhibition), the “MDA-MB-231 IC50” value is given as “not reached”.

Consider `COc1cc(/C=C/C(=O)/C=C(O)/C=C/c2ccc(OCc3ccc(CBr)cc3)c(OC)c2)ccc1OCc1ccc(CBr)cc1` [Compound 5, (1E,6E)-1,7-bis [3-methoxy-4(4-methylbromobenzyl)oxyphenyl]hepta-1,6-diene-3,5-dione], for which, in the data set with 1-7HB2 cells, the “1-7HB2 IC50” value is listed as “not reached”. In addition, the “SUM149 IC50” value with SUM 149 cells [4] (cell growth inhibition) is reported as “not reached”. In the data set with MDA-MB-231 cells [7] (cell growth inhibition), the “MDA-MB-231 IC50” value is “not reached”.

As to `COc1cc(/C=C/C(=O)CC(=O)/C=C/c2ccc(O)c(OC)c2)ccc1O` [Curcumin, reference compound], the IC50 came out at 37.5 ± 0.51 µM with 1-7HB2 cells; 40.5 µM with HL60R cells (HL60R); 47.5 µM in the data set with HL60 cells (Homo sapiens, HL-60, read-out: HL60 IC50); 14 ± 0.29 µM with SUM 149 cells [4] (Homo sapiens, SUM149, cell growth inhibition); 25.5 ± 0.35 µM with MDA-MB-231 cells [7] (Homo sapiens, MDA-MB-231, cell growth inhibition).

In general, viability refers to the share of living cells, or the viability signal relative to a control. In the case of `CC(=O)N[C@@H](CS)C(=O)O` [NAC, N-acetyl-L-cysteine], the viability at 2000 µM with SUM 149 cells [1] (Homo sapiens, SUM149, read-out: Cell Viability (%)) was 100 ± 9.5%; in the data set with MDA-MB-231 cells [3] (Homo sapiens, MDA-MB-231, read-out: Cell Viability (%)) it was 87 ± 3.9%.

For the compound `Cc1c(C)c2c(c(C)c1O)CCC(C)(C(=O)O)O2` (stereo not drawn) [Trolox, 6-hydroxy-2,5,7,8-tetramethyl-chroman-2-carboxylic acid, reference compound], the ED50 in [6] came out at 12.0 µM.

Turning to “(1E,6E)-1-(4-hydroxy-3-methoxyphenyl)-7-(3-methoxy-4-propargyloxyphenyl)hepta-1,6-diene -3,5-dione [Compound 1]”, the IC50 in the data set on 1-7HB2 cells was 20 µM; in the data set on HL60R cells (setting [8]), 7 µM; with HL60 cells (setting [9]), 14 µM; with SUM 149 cells [4] (setting [10]), 11.2 µM; in the data set with MDA-MB-231 cells [7] (cell growth inhibition) it was 18 µM. Moreover, the “reduction of IAP1 expression with respect to the control” value in the data set on IAP1 was found to be 32%. Also, the “NF-κB DNA-binding activity” value in the data set on NF-κB (p65 subunit) [5] was “NF-κB inhibitors; also recorded: greater effect than curcumin”.
